Data taken from patent publication EP4707277A1, “NOVEL HETEROCYCLIC AMINE DERIVATIVES AND PHARMACEUTICAL COMPOSITION COMPRISING SAME” (Daewoong Pharmaceutical Co., Ltd., priority 2023, dated 2024).
Where two headings read alike, the source gives them in different places.

What was measured:
[1] = biological target: T1, BTK (Homo sapiens, UniProt Q06187); assay: Inhibitory activity against BTK, ADP-Glo Kinase system (Promega); type: biochemical
T1 construct: purchased Signalchem B10-10H
Outline: (§1)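 IC50 values were fitted from kinase reactions run for 1 h at 30°C with either 1 mM ATP or ATP at Km (10 µM for BTK, 25 µM for ITK). Reactions used 0.2 µg/µl poly(Glu4,Tyr1), recombinant human enzyme (BTK 10 ng, ITK 4 ng per reaction) in Tris pH 7.5 Mn/Mg buffer with 1% DMSO. ADP formed was read by ADP-Glo luminescence.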

[2] = biological target: T2, ITK (Homo sapiens, UniProt Q08881); assay: Inhibitory activity against ITK, ADP-Glo Kinase system (Promega); type: biochemical
T2 construct: purchased Signalchem I13-11G-10
T2 sequence (Q08881 1-620): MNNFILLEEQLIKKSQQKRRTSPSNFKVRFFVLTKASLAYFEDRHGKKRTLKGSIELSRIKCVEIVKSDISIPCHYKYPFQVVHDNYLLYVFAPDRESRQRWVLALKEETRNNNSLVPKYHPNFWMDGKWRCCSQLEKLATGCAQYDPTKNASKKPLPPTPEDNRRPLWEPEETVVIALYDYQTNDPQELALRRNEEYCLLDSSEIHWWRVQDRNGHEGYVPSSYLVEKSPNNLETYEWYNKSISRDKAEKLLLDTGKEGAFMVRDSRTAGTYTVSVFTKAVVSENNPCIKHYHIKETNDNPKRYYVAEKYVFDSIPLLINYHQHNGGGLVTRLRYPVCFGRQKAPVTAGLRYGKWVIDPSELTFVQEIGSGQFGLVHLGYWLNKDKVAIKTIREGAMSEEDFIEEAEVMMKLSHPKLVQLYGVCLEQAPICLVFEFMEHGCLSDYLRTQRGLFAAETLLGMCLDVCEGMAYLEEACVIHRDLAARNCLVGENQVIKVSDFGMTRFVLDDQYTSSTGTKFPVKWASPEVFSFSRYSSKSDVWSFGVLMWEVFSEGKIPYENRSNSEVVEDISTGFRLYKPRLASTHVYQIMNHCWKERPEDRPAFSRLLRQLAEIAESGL
Outline: as §1

[3] = 1mM ATP, read-out: BTK IC50(nM) 1mM ATP
[4] = Km ATP (BTK: 10 uM), read-out: BTK IC50(nM) Km ATP
[5] = 1mM ATP, read-out: ITK IC50(nM) 1mM ATP
[6] = Km ATP (ITK: 25uM), read-out: ITK IC50(nM) Km ATP

T1 sequence (Q06187 whole entry): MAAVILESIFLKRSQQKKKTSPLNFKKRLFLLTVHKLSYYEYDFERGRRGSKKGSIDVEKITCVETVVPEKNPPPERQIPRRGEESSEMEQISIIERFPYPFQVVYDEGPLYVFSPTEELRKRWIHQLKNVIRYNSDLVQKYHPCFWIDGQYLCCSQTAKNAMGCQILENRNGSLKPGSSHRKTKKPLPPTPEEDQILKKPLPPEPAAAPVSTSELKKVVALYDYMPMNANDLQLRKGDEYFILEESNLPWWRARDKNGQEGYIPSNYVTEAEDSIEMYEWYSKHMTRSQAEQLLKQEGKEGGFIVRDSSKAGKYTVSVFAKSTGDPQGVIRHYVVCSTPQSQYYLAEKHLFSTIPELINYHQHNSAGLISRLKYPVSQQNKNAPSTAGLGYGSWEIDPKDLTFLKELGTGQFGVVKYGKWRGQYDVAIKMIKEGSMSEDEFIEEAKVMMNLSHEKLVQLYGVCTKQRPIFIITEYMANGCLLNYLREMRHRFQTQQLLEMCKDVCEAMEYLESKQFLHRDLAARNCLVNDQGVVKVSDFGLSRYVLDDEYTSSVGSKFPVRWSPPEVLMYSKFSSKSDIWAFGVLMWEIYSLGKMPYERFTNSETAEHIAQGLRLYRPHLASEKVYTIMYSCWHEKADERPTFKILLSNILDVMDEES

SMILES	IC50 [1, 3] [nM]	IC50 [1, 4] [nM]	IC50 [2, 5] [nM]	IC50 [2, 6] [nM]
C=CC(=O)N1CC[C@H](Oc2nc(Nc3ncc(C)s3)cc3c2ccn3C(C)C)C1 [Example 79, (S)-1-(3-((1-isopropyl-6-((5-methylthiazol-2-yl)amino)-1H-pyrrolo[3,2-c]pyridin-4-yl)oxy)pyrrolidin-1-yl)prop-2-en-1-one]	≤ 20	≤ 20	≤ 20	≤ 20
C=CC(=O)N1CC(Oc2nc(Nc3ncc(C)s3)cc3c2ccn3CCOC)C1 [Example 146, 1-(3-((1-(2-methoxyethyl)-6-((5-methylthiazol-2-yl)amino)-1H-pyrrolo[3,2-c]pyridin-4-yl)oxy)azetidin-1-yl)prop-2-en-1-one]	≤ 20		≤ 20	
C=CC(=O)N1CC[C@H](Oc2nc(Nc3ncc(C)s3)cc3c2ccn3C)C1 [Example 130, (S)-1-(3-((1-methyl-6-((5-methylthiazol-2-yl)amino)-1H-pyrrolo[3,2-c]pyridin-4-yl)oxy)pyrrolidin-1-yl)prop-2-en-1-one]	≤ 20		≤ 20	
C=CC(=O)N1CC[C@@H](Oc2nc(Nc3ncc(C)s3)cc3c2ccn3C)C1 [Example 156, (R)-1-(3-((1-methyl-6-((5-methylthiazol-2-yl)amino)-1H-pyrrolo[3,2-c]pyridin-4-yl)oxy)pyrrolidin-1-yl)prop-2-en-1-one]	> 500		> 500	
C=CC(=O)N1C[C@@H](Oc2nc(Nc3ncc(C)s3)cc3c2ccn3C(C)C)C[C@@H]1C [Example 88, 1-((2S,4S)-4-((1-isopropyl-6-((5-methylthiazol-2-yl)amino)-1H-pyrrolo[3,2-c]pyridin-4-yl)oxy)-2-methylpyrrolidin-1-yl)prop-2-en-1-one]	≤ 20		≤ 20	
C=CC(=O)N1CC=C(c2nc(Nc3ncc(C)s3)cc3c2ccn3CC2CCOC2)CC1 (centres unmarked) [Example 8, 1-(4-(6-((5-methylthiazol-2-yl)amino)-1-((tetrahydrofuran-3-yl)methyl)-1H-pyrrolo[3,2-c]pyridin-4-yl)-3,6-dihydropyridin-1(2H)-yl)prop-2-en-1-one]		≤ 20		≤ 20
C=CC(=O)N1CCC=C(c2nc(Nc3ncc(C)s3)cc3c2ccn3C(C)(C)C#N)C1 [Example 23, 2-(4-(1-acryloyl-1,2,5,6-tetrahydropyridin-3-yl)-6-((5-methylthiazol-2-yl)amino)-1H-pyrrolo[3,2-c]pyridin-1-yl)-2-methylpropanenitrile]		20 to 100		≤ 20
C=CC(=O)N1CC[C@@H]1COc1nc(Nc2ncc(C)s2)cc2c1ccn2CC(F)(F)F [Example 208, (R)-1-(2-(((6-((5-methylthiazol-2-yl)amino)-1-(2,2,2-trifluoroethyl)-1H-pyrrolo[3,2-c]pyridin-4-yl)oxy)methyl)azetidin-1-yl)prop-2-en-1-one]	≤ 20		≤ 20	
C=CC(=O)N1CC(C)(Oc2nc(Nc3ncc(C)s3)cc3c2ccn3CC2CCCC2)C1 [Example 178, 1-(3-((1-(cyclopentylmethyl)-6-((5-methylthiazol-2-yl)amino)-1H-pyrrolo[3,2-c]pyridin-4-yl)oxy)-3-methylazetidin-1-yl)prop-2-en-1-one]	≤ 20		≤ 20	
C=CC(=O)N1CCCC1COc1nc(Nc2ncc(C)s2)cc2c1ccn2C1CCCC1 (centres unmarked) [Example 217, 1-(2-(((1-cyclopentyl-6-((5-methylthiazol-2-yl)amino)-1H-pyrrolo[3,2-c]pyridin-4-yl)oxy)methyl)pyrrolidin-1-yl)prop-2-en-1-one]	≤ 20		20 to 100	
C=CC(=O)Nc1cccc(-c2nc(Nc3ncc(C)s3)cc3c2ccn3C(C)C)c1C [Example 58, N-(3-(1-isopropyl-6-((5-methylthiazol-2-yl)amino)-1H-pyrrolo[3,2-c]pyridin-4-yl)-2-methylphenyl)acrylamide]	≤ 20		≤ 20	
C=CC(=O)N1C2C=C(c3nc(Nc4ncc(C)s4)cc4c3ccn4C(C)C)CC1COC2 (centres unmarked) [Example 27, 1-(7-(1-isopropyl-6-((5-methylthiazol-2-yl)amino)-1H-pyrrolo[3,2-c]pyridin-4-yl)-3-oxa-9-azabicyclo[3.3.1]non-6-en-9-yl)prop-2-en-1-one]		≤ 20		≤ 20
C=CC(=O)N1CC[C@H](Oc2nc(Nc3ncc(C)s3)cc3c2ccn3CC2CCCCC2)C1 [Example 129, (S)-1-(3-((1-(cyclohexylmethyl)-6-((5-methylthiazol-2-yl)amino)-1H-pyrrolo[3,2-c]pyridin-4-yl)oxy)pyrrolidin-1-yl)prop-2-en-1-one]	≤ 20		≤ 20	
C=CC(=O)N1C2C=C(c3nc(Nc4ncc(C)s4)cc4c3ccn4CC(C)C)CC1CCC2 (centres unmarked) [Example 38, 1-(3-(1-isobutyl-6-((5-methylthiazol-2-yl)amino)-1H-pyrrolo[3,2-c]pyridin-4-yl)-9-azabicyclo[3.3.1]non-2-en-9-yl)prop-2-en-1-one]	≤ 20		≤ 20	
C=CC(=O)N1CC=C(c2nc(Nc3ncc(C)s3)cc3c2ccn3CC2CCC2)CC1 [Example 7, 1-(4-(1-(cyclobutylmethyl)-6-((5-methylthiazol-2-yl)amino)-1H-pyrrolo[3,2-c]pyridin-4-yl)-3,6-dihydropyridin-1(2H)-yl)prop-2-en-1-one]		≤ 20		≤ 20
C=CC(=O)N1CC[C@H](Oc2nc(Nc3cc(C)[nH]n3)cc3c2ccn3C(C)C)C1 [Example 194, (S)-1-(3-((1-isopropyl-6-((5-methyl-1H-pyrazol-3-yl)amino)-1H-pyrrolo[3,2-c]pyridin-4-yl)oxy)pyrrolidin-1-yl)prop-2-en-1-one]	≤ 20		20 to 100	
C=CC(=O)N1CCC2(CCC(Oc3nc(Nc4ncc(C)s4)cc4c3ccn4CC(C)C)C2)C1 (centres unmarked) [Example 204, 1-(7-((1-isobutyl-6-((5-methylthiazol-2-yl)amino)-1H-pyrrolo[3,2-c]pyridin-4-yl)oxy)-2-azaspiro[4.4]nonan-2-yl)prop-2-en-1-one]	> 500		> 500	
C=CC(=O)N1CC=C(c2nc(Nc3ncc(C)s3)cc3c2ccn3[C@H](C)C(F)(F)F)CC1 [Example 24, (R)-1-(4-(6-((5-methylthiazol-2-yl)amino)-1-(1,1,1-trifluoropropan-2-yl)-1H-pyrrolo[3,2-c]pyridin-4-yl)-3,6-dihydropyridin-1(2H)-yl)prop-2-en-1-one]	≤ 20		20 to 100	
C=CC(=O)N1C[C@H](F)[C@H](Oc2nc(Nc3ncc(C(=O)NC)s3)cc3c2ccn3CC(C)C)C1 [Example 182, 2-((4-(((3R,4S)-1-acryloyl-4-fluoropyrrolidin-3-yl)oxy)-1-isobutyl-1H-pyrrolo[3,2-c]pyridin-6-yl)amino)-N-methylthiazole-5-carboxamide]	≤ 20		≤ 20	
C=CC(=O)N1C[C@H](F)[C@H](Oc2nc(Nc3cc(F)ccc3C)cc3c2ccn3C)C1 [Example 139, 1-((3S,4R)-3-fluoro-4-((6-((5-fluoro-2-methylphenyl)amino)-1-methyl-1H-pyrrolo[3,2-c]pyridin-4-yl)oxy)pyrrolidin-1-yl)prop-2-en-1-one]	> 500		> 500	
C=CS(=O)(=O)N1C[C@H](F)[C@H](Oc2nc(Nc3ncc(C)s3)cc3c2ccn3CC(C)C)C1 [Example 228, N-(4-(((3R,4S)-4-fluoro-1-(vinylsulfonyl)pyrrolidin-3-yl)oxy)-1-isobutyl-1H-pyrrolo[3,2-c]pyridin-6-yl)-5-methylthiazol-2-amine]	≤ 20		≤ 20	
